Laboratory results: patent US20060147538A1, “Nanocomposite drug delivery composition” (THE QUEEN'S UNIVERSITY OF BELFAST, priority 2003, published 2006)

What was measured:
[1] = Drug release studies, polymer-drug-clay disks (Example 3); type: physicochemical
Description: In a one embodiment the discs were 18 mm in diameter and 1 mm thick. Different sizes or shapes of discs will influence the release rate of the drug.

[2] = Drug release studies, polymer-drug-clay extrudate (Example 3); type: physicochemical
Description: PEGIB is PEG+ibuprofen, PEGIBM is PEG+ibuprofen+montmorillonite (natural clay) and PEGIBS is PEG+ibuprofen+synthetic clay. In one embodiment the extrudate is rod shaped with a diameter of 1 mm.
In one embodiment the extrudate is rod shaped with a diameter of 1 mm.

SMILES	Time 50% release ([1]; PCL-Paracetamol-Clay Disks) [min]	Time 80% release ([1]; PCL-Paracetamol-Clay Disks) [min]	Time 100% release ([1]; PCL-Paracetamol-Clay Disks) [min]	Time 50% release ([1]; PEG-Paracetamol-Clay Disks) [min]	Time 80% release ([1]; PEG-Paracetamol-Clay Disks) [min]	Time 100% release ([1]; PEG-Paracetamol-Clay Disks) [min]	Time 50% release ([2]; PCL-Paracetamol-Clay Extrudate) [min]	Time 80% release ([2]; PCL-Paracetamol-Clay Extrudate) [min]	Time 100% release ([2]; PCL-Paracetamol-Clay Extrudate) [min]	Time 50% release ([2]; PEG-Paracetamol-Clay Extrudate) [min]	Time 80% release ([2]; PEG-Paracetamol-Clay Extrudate) [min]	Time 100% release ([2]; PEG-Paracetamol-Clay Extrudate) [min]	Time 50% release ([1]; PEG-Ibuprofen-Clay Disks) [min]	Time 80% release ([1]; PEG-Ibuprofen-Clay Disks) [min]	Time 100% release ([1]; PEG-Ibuprofen-Clay Disks) [min]	Time 50% release ([2]; PEG-Ibuprofen-Clay Extrudate) [min]	Time 80% release ([2]; PEG-Ibuprofen-Clay Extrudate) [min]	Time 100% release ([2]; PEG-Ibuprofen-Clay Extrudate) [min]
CC(=O)Nc1ccc(O)cc1 [Paracetamol powder, paracetamol]	<5	<5	<5	<5	<5	<5	<5	<5	<5	<5	<5	<5						
CC(C)Cc1ccc(C(C)C(=O)O)cc1 (stereo not drawn) [Ibuprofen Powder, ibuprofen]													<5	<5	10	<5	<5	10
